Laboratory results from article PMC7203344, “Sirtuin 1 Inhibiting Thiocyanates (S1th)—A New Class of Isotype Selective Inhibitors of NAD^+ Dependent Lysine Deacetylases” (Frontiers in Oncology, 2020).
“Also recorded” adds a separate entry of the source.

Columns and labels:
[1] = tested on: H3K9ac and p53K382ac in HeLa cells; experiment: Analysis of acetylation status in HeLa cells by western blotting; type: cell-based, human; settings: 48 h, concentrations as in proliferation assay
Protocol: 5 × 10^4 cells were plated in 6-well plates and grown with the conditions and drug concentrations as described for the proliferation assay. Cells were harvested at 48 h and resuspendend in protein loading buffer. After sonication the samples were centrifuged at 14,000 rpm in an Eppendorf microcentrifuge (Eppendorf, DE) and the supernatants were analyzed by western-blot. The following antibodies were used: histone H3 (Cell Signaling #9715), histone H3K9ac (Cell Signaling # C5B11), GAPDH (Cell Signaling #D16H11), p53 (ThermoFisher #PA527822), and p53K382ac (Abcam 75754). Quantification was carried out using imageJ.

[2] = tested on: HeLa cells; experiment: Cell proliferation assay with HeLa cells; type: cell-based, human; settings: EX-527 20 μM, S1th 13 12 μM, S1th 12 20 μM, S1th 10 30 μM; up to 120 h
Protocol: (§1) 1.5 × 10^4 cells/well were seeded in 24-well plates and grown in DMEM 10% in presence of DMSO, 20 μM EX-527, 12 μM S1th 13, 20 μM S1th 12, or 30 μM S1th 10. The growth media containing the drugs was replaced every 48 h. Cells were collected and counted at the indicated times starting 24 h after seeding (0, 24, 48, 72, 96, and 120 h). The experiment was performed twice in duplicates.

[3] = tested on: MCF7 cells; experiment: Colony forming assay with MCF7 cells; type: cell-based, human; settings: concentrations as for HeLa
Protocol: (§2) For colony assays, 50 cells per well were seeded in 6-well plates and grown in the same conditions with the same drug concentrations as for the proliferation assays. In this case, the growth media containing the drugs was replaced every 48 h. After 7–10 days, when isolated colonies were formed, wells were washed with PBS, and cells were fixed with cold methanol for 5 min at RT. Cells were stained with crystal violet for 10 min at RT and washed with H2O. Images were acquired using iBright (Thermo Fisher Scientific, MA, USA). For quantification, cells of each well were resuspended in 10% glacial acetic acid to dissolve crystal violet whose levels were monitored by measuring absorbance at 590 nm. The experiment was performed in duplicates.

[4] = tested on: HeLa cells; experiment: Wound healing assay with HeLa cells; type: cell-based, human
Protocol: For wound healing assay 6 × 10^5 cells per well were seeded in 6-well plates and grown for 24 h in DMEM containing 10% FBS. After 24 h, a lineal gap between cells was created in the middle of the plate by scratching the cell monolayer with a 1 mL pipette tip in the same position in each well. Once the scratching is done, plates were washed twice with PBS and then grown in DMEM containing 1% FBS and the drugs in the same concentrations as for the proliferation assay. As described previously, the growth media 1% FBS containing the drugs was replaced every 48 h. Images were acquired in an Optimal microscope (Leica microscopes, DE) using Leica Application Suite X (LAS X) every 24 h (0, 24, 48, and 72 h) until the gap closed. The quantification of the area of the gap at the indicated times was performed with Image J-MRI Wound Healing Tool. The experiment was performed only once.

[5] = tested on: MCF7 cells; experiment: Cell proliferation assay with MCF7 cells; type: cell-based, human; settings: concentrations as for HeLa
Protocol: as §1

[6] = tested on: γH2AX/H2AX levels in MEF cells; experiment: γH2AX level determination by western blot; type: cell-based, mouse
Protocol: Sirt1 WT and KO MEFS cells were treated with 10 μM EX-527, 12 μM S1th 13 (6), 20 μM S1th 12 (5), 30 μM S1th 10 (7) and 30 μM SirReal2 [Sirt2 inhibitor, synthesized according to ([62])] for 48 h. Oxidative stress was induced using 10 μM Camptothecin 2 h. Whole-cell extracts were performed according to the Dignam protocol ([63]). Primary antibodies used for the western blot were anti-H2AX and anti-γH2AX (ab11175 and ab2893 resp., Abcam, UK). Densiometric analysis of the western blots was performed with Quantity One software (Bio-Rad Laboratories, Inc., USA).

[7] = target: T1, Sirt1 (Homo sapiens, UniProt Q96EB6); experiment: Fluorescent thermal shift assay (FTSA), Sirt1; type: binding
T1 construct: made in house; host or cells: E. coli BL21 Star (DE3)
T1 sequence (Q96EB6 134-747): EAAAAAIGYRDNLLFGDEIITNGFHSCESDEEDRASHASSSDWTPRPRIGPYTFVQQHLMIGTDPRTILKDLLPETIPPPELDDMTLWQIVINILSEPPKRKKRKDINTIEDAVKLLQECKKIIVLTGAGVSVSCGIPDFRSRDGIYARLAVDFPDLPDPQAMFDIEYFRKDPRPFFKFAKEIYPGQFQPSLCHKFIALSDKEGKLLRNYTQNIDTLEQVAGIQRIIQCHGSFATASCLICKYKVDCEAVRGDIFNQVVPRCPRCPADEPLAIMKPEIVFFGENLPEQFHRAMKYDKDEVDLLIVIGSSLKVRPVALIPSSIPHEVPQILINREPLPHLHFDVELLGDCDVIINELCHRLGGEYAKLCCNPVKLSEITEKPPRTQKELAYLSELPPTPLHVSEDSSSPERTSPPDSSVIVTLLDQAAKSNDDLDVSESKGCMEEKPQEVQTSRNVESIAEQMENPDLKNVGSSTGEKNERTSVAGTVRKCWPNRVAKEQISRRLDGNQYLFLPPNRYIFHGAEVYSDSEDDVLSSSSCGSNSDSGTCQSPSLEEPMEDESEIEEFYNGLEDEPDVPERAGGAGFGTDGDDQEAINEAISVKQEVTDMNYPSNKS
Protocol: In a 96-well plate (Hard-Shell® PCR-plates, 96-well, thin-wall, BioRAD, USA) 14 μL Sirt1_134−747 in assay buffer (0.3 mg/mL final assay concentration, 50 mM Tris/HCl, 137 mM NaCl, 2.7 mM KCl, 1 mM MgCL2, pH 8.0) were mixed with 1 μL inhibitor in DMSO (100 μM) or DMSO [final assay concentration 5% (v/v)] as a control and 5 μL SyproOrange (1:100 in assay buffer). The fluorescence intensity was monitored during a constant increase of temperature from 20 to 95°C, 1 K per 20 s, using a real-time-PCR-machine (C1000 TouchTM Thermal Cycler, CFX96TM Real-Time System, BioRAD, USA). Melting temperatures were calculated via GraphPad Prism according to a published procedure ([60]).

[8] = tested on: HeLa cells; experiment: Colony forming assay with HeLa cells; type: cell-based, human; settings: 7–10 days; concentrations as in proliferation assay
Protocol: as §2

With NC(=O)C1CCCc2c1[nH]c1ccc(Cl)cc21 (stereo not drawn) [EX-527, reference compound] the “H3K9 acetylation in HeLa cells” value [1] was “no hyperacetylation”, the “p53K382 acetylation in HeLa cells” value [1] was “increased acetylation levels” and the “H3K9 acetylation in HeLa cells” value ([1]; listed as 1) was “did not show clear hyperacetylation”. The “cell proliferation of HeLa cells” value [2] was “significantly decreased cell proliferation”, the “colony forming capabilities of MCF7 cells” value [3] was “significantly decreased” and the “migration of HeLa cells (wound healing), 24 h” value ([4]; 24 h, concentrations as in proliferation assay, performed once) was “failed to impair migration”. For the same compound, the “wound healing of HeLa cells, 72 h” value ([4]; 72 h) was “mild effect on wound healing”, the “cell proliferation of MCF7 cells” value [5] was “only have a mild effect” and the “γH2AX/H2AX levels without Camptothecin” value ([6]; 48 h, EX-527 10 μM, S1th 10 30 μM, S1th 12 20 μM, S1th 13 12 μM, SirReal2 30 μM) was “decreased”. The “γH2AX/H2AX levels after addition of Camptothecin” value ([6]; Camptothecin 10 μM 2 h, same inhibitor concentrations) was “strong decrease”, the “effect on Tm of Sirt1 (in words)” value [7] was “barely effected; also recorded: very small shift or no shift at all” and the “colony forming of HeLa cells” value [8] was “completely suppressed colony forming”.
